Data published in patent US20230321012A1 (priority 2021, published 2023).

Assay: clinical
Settings: for Cmax / Tmax / AUC(0-t): human
Protocol: Clinical Trial Outline. […] All solid tumor types are eligible for the trial. […] An expansion cohort was included at the RP2D level to confirm safety and tolerability of the combination. […] In Part 2, patients were treated by giving both agents twice daily (BID dosing schedule).
Plasma samples were analyzed for AMXT 1501 concentration via a LC/MS^2 procedure (MI-0028-DB-AB; Agilux Laboratories, Worcester, Massachusetts), and the resulting concentration versus time data were used to estimate individual PK parameters using noncompartmental analysis (NCA).

[1] = Part 1 Cohort 1, 80 mg QD, Cycle 1 Day 1
[2] = Part 1 Cohort 1, 80 mg QD, Cycle 1 Day 14
[3] = Part 1 Cohort 1, 80 mg QD, Cycle 1 Day 28, +DFMO 500 mg/day
[4] = Part 1 Cohort 2, 160 mg QD, Cycle 1 Day 1
[5] = Part 1 Cohort 2, 160 mg QD, Cycle 1 Day 14
[6] = Part 1 Cohort 2, 160 mg QD, Cycle 1 Day 28, +DFMO 500 mg/day
[7] = Part 1 Cohort 3, 400 mg QD, Cycle 1 Day 14
[8] = Part 1 Cohort 3, 400 mg QD, Cycle 1 Day 28, +DFMO 500 mg/day
[9] = Part 1 Cohort 3, 400 mg QD, Day 1
[10] = Part 1 Cohort 4, 1200 mg QD, Cycle 1 Day 1
[11] = Part 1 Cohort 4, 1200 mg QD, Cycle 1 Day 14
[12] = Part 1 Cohort 5, 1800 mg QD, Cycle 1 Day 1
[13] = Part 1 Cohort 5, 1800 mg QD, Cycle 1 Day 14
[14] = Part 1 Cohort 5, 1800 mg QD, Cycle 1 Day 28, +DFMO 500 mg/day
[15] = Part 1 Cohort 5, 1800 mg QD, Cycle 2 Day 14, n=1

For `CCCCCCCCCCCCCCCC(=O)NCCCC[C@@H](N)C(=O)NCCCNCCCCNCCCN` [AMXT 1501, D-lys(palmitoyl)-spermine], the “Cohort 5 patient AUC versus mouse plasma AUC at efficacious dose” value (Cohort 5 patients vs 2.5 mg/kg SC in 4T1 mice) was 1.72 times, the “Tlast Mean” value [1] was 13.2 h and the “Tlast Median” value [1] was 6 h. The “Tlast Mean” value [2] was 12 h, the “Tlast Median” value [2] was 6 h and the “Tlast Mean” value [3] was 18 h. The “Tlast Median” value [3] was 24 h, the “Tlast Mean” value [4] was 15 h and the “Tlast Median” value [4] was 15 h. For the same compound, the “Tlast Mean” value [5] was 15 h, the “Tlast Median” value [5] was 15 h and the “Tlast Mean” value [6] was 10.5 h. The “Tlast Median” value [6] was 6 h, the “Tlast Mean” value [7] was 19.5 h and the “Tlast Median” value [7] was 24 h. For the same compound, the “Tlast Mean” value [8] was 24 h, the “Tlast Median” value [8] was 24 h and the “Tlast Mean” value [9] was 25.5 h. The “Tlast Median” value [9] was 24 h, the “Tlast Mean” value [10] was 40 h and the “Tlast Median” value [10] was 24 h. The “Tlast Mean” value [11] was 24 h, the “Tlast Median” value [11] was 24 h and the “Tlast Mean” value [12] was 54 h. The “Tlast Median” value [12] was 60 h, the “Tlast Mean” value [13] was 24 h and the “Tlast Median” value [13] was 24 h. The “Tlast Mean” value [14] was 24 h, the “Tlast Median” value [14] was 24 h and the “Tlast Mean” value [15] was 24 h. The “Tlast Median” value [15] was 24 h, the “sustained plasma level versus predicted efficacious concentration (100 nM, 57 ng/mL)” value (adult patients, 1,200 mg or 800 mg per day, split BID) was “above this predicted efficacious concentration value” and the Cmax (in vivo, 160 mg, Cmax Mean, Part 1 Cohort 2, 160 mg QD, Cycle 1 Day 1) was 19.5 ng/mL. It also gave a Tmax (in vivo, 1800 mg, Tmax Mean, Part 1 Cohort 5, 1800 mg QD, Cycle 1 Day 1) of 10.5 h, an AUC(0-t) (plasma, oral, 80 mg, AUC0-6 hr Mean, Part 1 Cohort 1, 80 mg QD, Cycle 1 Day 1) of 29.6 ng·h/mL and an AUC(0-t) (plasma, oral, 80 mg, AUC0-6 hr Mean, Part 1 Cohort 1, 80 mg QD, Cycle 1 Day 14) of 91 ng·h/mL. It also gave an AUC(0-t) (plasma, oral, 80 mg, AUC0-6 hr Median, Part 1 Cohort 1, 80 mg QD, Cycle 1 Day 1) of 29.9 ng·h/mL, an AUC(0-t) (plasma, oral, 80 mg, AUC0-6 hr Median, Part 1 Cohort 1, 80 mg QD, Cycle 1 Day 14) of 51.3 ng·h/mL and an AUC(0-t) (plasma, oral, 80 mg, AUC0-t Mean, Part 1 Cohort 1, 80 mg QD, Cycle 1 Day 1) of 92 ng·h/mL. The AUC(0-t) (plasma, oral, 80 mg, AUC0-t Mean, Part 1 Cohort 1, 80 mg QD, Cycle 1 Day 14) was 262 ng·h/mL, the AUC(0-t) (plasma, oral, 80 mg, AUC0-t Median, Part 1 Cohort 1, 80 mg QD, Cycle 1 Day 1) was 45.3 ng·h/mL and the AUC(0-t) (plasma, oral, 80 mg, AUC0-t Median, Part 1 Cohort 1, 80 mg QD, Cycle 1 Day 14) was 51.3 ng·h/mL. For the same compound, the Cmax (plasma, oral, 80 mg, Cmax Mean, Part 1 Cohort 1, 80 mg QD, Cycle 1 Day 1) was 11.7 ng/mL, the Cmax (plasma, oral, 80 mg, Cmax Mean, Part 1 Cohort 1, 80 mg QD, Cycle 1 Day 14) was 26.2 ng/mL and the Cmax (plasma, oral, 80 mg, Cmax Median, Part 1 Cohort 1, 80 mg QD, Cycle 1 Day 1) was 10.6 ng/mL. It also gave a Cmax (plasma, oral, 80 mg, Cmax Median, Part 1 Cohort 1, 80 mg QD, Cycle 1 Day 14) of 13.8 ng/mL, a Tmax (plasma, oral, 80 mg, Tmax Mean, Part 1 Cohort 1, 80 mg QD, Cycle 1 Day 1) of 4.8 h and a Tmax (plasma, oral, 80 mg, Tmax Mean, Part 1 Cohort 1, 80 mg QD, Cycle 1 Day 14) of 4.67 h. The Tmax (plasma, oral, 80 mg, Tmax Median, Part 1 Cohort 1, 80 mg QD, Cycle 1 Day 1) was 4 h, the Tmax (plasma, oral, 80 mg, Tmax Median, Part 1 Cohort 1, 80 mg QD, Cycle 1 Day 14) was 4 h and the AUC(0-t) (plasma, oral, 160 mg, AUC0-6 hr Mean, Part 1 Cohort 2, 160 mg QD, Cycle 1 Day 1) was 74.8 ng·h/mL. For the same compound, the AUC(0-t) (plasma, oral, 160 mg, AUC0-6 hr Mean, Part 1 Cohort 2, 160 mg QD, Cycle 1 Day 14) was 43.4 ng·h/mL, the AUC(0-t) (plasma, oral, 160 mg, AUC0-6 hr Median, Part 1 Cohort 2, 160 mg QD, Cycle 1 Day 1) was 67.1 ng·h/mL and the AUC(0-t) (plasma, oral, 160 mg, AUC0-6 hr Median, Part 1 Cohort 2, 160 mg QD, Cycle 1 Day 14) was 49.8 ng·h/mL. For the same compound, the AUC(0-t) (plasma, oral, 160 mg, AUC0-t Mean, Part 1 Cohort 2, 160 mg QD, Cycle 1 Day 1) was 169 ng·h/mL, the AUC(0-t) (plasma, oral, 160 mg, AUC0-t Mean, Part 1 Cohort 2, 160 mg QD, Cycle 1 Day 14) was 105 ng·h/mL and the AUC(0-t) (plasma, oral, 160 mg, AUC0-t Median, Part 1 Cohort 2, 160 mg QD, Cycle 1 Day 1) was 130 ng·h/mL. It also gave an AUC(0-t) (plasma, oral, 160 mg, AUC0-t Median, Part 1 Cohort 2, 160 mg QD, Cycle 1 Day 14) of 59.7 ng·h/mL, a Cmax (plasma, oral, 160 mg, Cmax Mean, Part 1 Cohort 2, 160 mg QD, Cycle 1 Day 14) of 14.1 ng/mL and a Cmax (plasma, oral, 160 mg, Cmax Median, Part 1 Cohort 2, 160 mg QD, Cycle 1 Day 1) of 17.8 ng/mL. For the same compound, the Cmax (plasma, oral, 160 mg, Cmax Median, Part 1 Cohort 2, 160 mg QD, Cycle 1 Day 14) was 16.2 ng/mL, the Tmax (plasma, oral, 160 mg, Tmax Mean, Part 1 Cohort 2, 160 mg QD, Cycle 1 Day 1) was 4 h and the Tmax (plasma, oral, 160 mg, Tmax Mean, Part 1 Cohort 2, 160 mg QD, Cycle 1 Day 14) was 5 h. For the same compound, the Tmax (plasma, oral, 160 mg, Tmax Median, Part 1 Cohort 2, 160 mg QD, Cycle 1 Day 1) was 4 h, the Tmax (plasma, oral, 160 mg, Tmax Median, Part 1 Cohort 2, 160 mg QD, Cycle 1 Day 14) was 5 h and the AUC(0-t) (plasma, oral, 400 mg, AUC0-6 hr Mean, Part 1 Cohort 3, 400 mg QD, Cycle 1 Day 14) was 289 ng·h/mL. It also gave an AUC(0-t) (plasma, oral, 400 mg, AUC0-6 hr Mean, Part 1 Cohort 3, 400 mg QD, Day 1) of 183 ng·h/mL, an AUC(0-t) (plasma, oral, 400 mg, AUC0-6 hr Median, Part 1 Cohort 3, 400 mg QD, Cycle 1 Day 14) of 304 ng·h/mL and an AUC(0-t) (plasma, oral, 400 mg, AUC0-6 hr Median, Part 1 Cohort 3, 400 mg QD, Day 1) of 207 ng·h/mL. The AUC(0-t) (plasma, oral, 400 mg, AUC0-t Mean, Part 1 Cohort 3, 400 mg QD, Cycle 1 Day 14) was 957 ng·h/mL, the AUC(0-t) (plasma, oral, 400 mg, AUC0-t Mean, Part 1 Cohort 3, 400 mg QD, Day 1) was 714 ng·h/mL and the AUC(0-t) (plasma, oral, 400 mg, AUC0-t Median, Part 1 Cohort 3, 400 mg QD, Cycle 1 Day 14) was 1100 ng·h/mL. For the same compound, the AUC(0-t) (plasma, oral, 400 mg, AUC0-t Median, Part 1 Cohort 3, 400 mg QD, Day 1) was 906 ng·h/mL, the Cmax (plasma, oral, 400 mg, Cmax Mean, Part 1 Cohort 3, 400 mg QD, Cycle 1 Day 14) was 66.4 ng/mL and the Cmax (plasma, oral, 400 mg, Cmax Mean, Part 1 Cohort 3, 400 mg QD, Day 1) was 47 ng/mL. For the same compound, the Cmax (plasma, oral, 400 mg, Cmax Median, Part 1 Cohort 3, 400 mg QD, Cycle 1 Day 14) was 73.5 ng/mL, the Cmax (plasma, oral, 400 mg, Cmax Median, Part 1 Cohort 3, 400 mg QD, Day 1) was 52.5 ng/mL and the Tmax (plasma, oral, 400 mg, Tmax Mean, Part 1 Cohort 3, 400 mg QD, Cycle 1 Day 14) was 5 h. For the same compound, the Tmax (plasma, oral, 400 mg, Tmax Mean, Part 1 Cohort 3, 400 mg QD, Day 1) was 5 h and the Tmax (plasma, oral, 400 mg, Tmax Median, Part 1 Cohort 3, 400 mg QD, Cycle 1 Day 14) was 5 h.
